The values that follow are results of earlier work, collected in patent publication EP0356866A2, “Phosphorus-containing squalene synthetase inhibitors and method” (E.R. SQUIBB & SONS, INC., priority 1988, dated 1990).

For this series, the target named is T1, avian liver farnesyl diphosphate synthetase (Gallus gallus, UniProt P08836).
T1 construct: host or cells: avian liver
T1 sequence (P08836 1-367): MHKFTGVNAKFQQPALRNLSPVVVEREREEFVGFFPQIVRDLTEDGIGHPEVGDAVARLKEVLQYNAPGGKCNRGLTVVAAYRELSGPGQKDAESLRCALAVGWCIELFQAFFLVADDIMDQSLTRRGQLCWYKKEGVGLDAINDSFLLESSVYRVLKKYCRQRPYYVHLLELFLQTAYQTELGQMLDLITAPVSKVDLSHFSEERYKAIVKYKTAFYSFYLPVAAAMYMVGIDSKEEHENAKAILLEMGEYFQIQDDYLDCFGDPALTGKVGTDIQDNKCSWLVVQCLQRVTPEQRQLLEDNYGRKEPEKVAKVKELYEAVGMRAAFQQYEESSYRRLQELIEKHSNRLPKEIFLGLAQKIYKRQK
As to conditions: competitive inhibitors of the 1′-4-condensation between isopentenyl diphosphate and geranyl diphosphate.

As usually defined, the Ki is the equilibrium dissociation constant of an inhibitor or competing ligand from its target. Take `C=C(C)CCCP(=O)(O)CP(=O)(O)O` [G]: the Ki is 19 µM.

Consider `CC(C)=CCCP(=O)(O)CP(=O)(O)O` [H], for which the Ki was 71 µM.
